This passage reports Activity results from ChEMBL document CHEMBL5678818, “Discovery of potent SOS1 inhibitors that block RAS activation via disruption of the RAS-SOS1 interaction” (Proc Natl Acad Sci U S A, 2019).

Assay [1] concerns the target Calcium/calmodulin-dependent protein kinase type 1B (Homo sapiens) (UniProt Q6P2M8). The experiment in a line: Inhibition of CAMK1B (unknown origin) assessed as residual activity at 1000 nM by KINOMEscan analysis relative to control.
Assay [2] addresses T1, Aurora kinase C (Homo sapiens) (UniProt Q9UQB9).
T1 sequence (whole entry): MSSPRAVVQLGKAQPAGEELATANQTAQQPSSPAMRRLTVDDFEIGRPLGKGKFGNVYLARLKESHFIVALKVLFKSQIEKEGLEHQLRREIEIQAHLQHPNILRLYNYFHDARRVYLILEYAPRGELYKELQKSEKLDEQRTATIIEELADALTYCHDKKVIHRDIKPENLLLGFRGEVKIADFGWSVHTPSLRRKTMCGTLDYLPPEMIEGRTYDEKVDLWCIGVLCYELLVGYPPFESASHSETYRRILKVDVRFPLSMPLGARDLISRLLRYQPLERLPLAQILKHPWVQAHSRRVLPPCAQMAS
The assay is described as follows: Inhibition of AURKC (unknown origin) assessed as residual activity at 100 nM by KINOMEscan analysis relative to control.

The target of assay [3] is Protein-tyrosine kinase 6 (Homo sapiens) (UniProt Q13882). The experiment in a line: Inhibition of BRK (unknown origin) assessed as residual activity at 100 nM by KINOMEscan analysis relative to control.
Chain of Protein-tyrosine kinase 6 (Homo sapiens) (Q13882 whole entry, looked up): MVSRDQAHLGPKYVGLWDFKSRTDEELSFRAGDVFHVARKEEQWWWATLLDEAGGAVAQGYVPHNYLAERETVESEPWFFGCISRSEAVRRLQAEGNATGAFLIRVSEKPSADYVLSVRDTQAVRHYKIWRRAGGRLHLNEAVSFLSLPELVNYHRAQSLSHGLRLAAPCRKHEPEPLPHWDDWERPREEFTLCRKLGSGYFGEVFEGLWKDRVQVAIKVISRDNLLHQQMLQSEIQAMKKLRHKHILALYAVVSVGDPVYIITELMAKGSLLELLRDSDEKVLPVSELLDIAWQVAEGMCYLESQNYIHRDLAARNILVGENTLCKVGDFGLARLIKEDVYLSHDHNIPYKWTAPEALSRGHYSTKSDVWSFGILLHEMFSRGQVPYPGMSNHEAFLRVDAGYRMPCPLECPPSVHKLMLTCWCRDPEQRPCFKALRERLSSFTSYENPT
Assay [4] concerns the target T2, Rhodopsin kinase GRK1 (Homo sapiens) (UniProt Q15835).
T2 sequence (whole entry): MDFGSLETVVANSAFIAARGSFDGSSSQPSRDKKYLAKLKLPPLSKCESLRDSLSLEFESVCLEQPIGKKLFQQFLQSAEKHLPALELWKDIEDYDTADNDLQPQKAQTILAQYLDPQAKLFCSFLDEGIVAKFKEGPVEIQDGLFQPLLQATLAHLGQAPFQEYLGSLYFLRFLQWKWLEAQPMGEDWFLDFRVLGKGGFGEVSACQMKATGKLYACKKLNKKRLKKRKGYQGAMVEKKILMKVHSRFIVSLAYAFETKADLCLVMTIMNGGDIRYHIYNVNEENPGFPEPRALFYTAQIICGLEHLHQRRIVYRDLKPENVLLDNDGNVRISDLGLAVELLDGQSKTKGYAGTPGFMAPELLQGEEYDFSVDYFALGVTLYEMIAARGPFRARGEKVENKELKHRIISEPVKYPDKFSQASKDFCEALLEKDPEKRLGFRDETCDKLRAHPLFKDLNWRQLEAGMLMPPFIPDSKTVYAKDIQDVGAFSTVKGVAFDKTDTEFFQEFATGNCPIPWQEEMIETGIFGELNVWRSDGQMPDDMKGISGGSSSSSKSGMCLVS
The assay is described as follows: Inhibition of GRK1 (unknown origin) assessed as residual activity at 100 nM by KINOMEscan analysis relative to control.

The target in assay [5] is Mitogen-activated protein kinase kinase kinase kinase 1 (Homo sapiens) (UniProt Q92918). The experiment in a line: Inhibition of HPK1 (unknown origin) assessed as residual activity at 100 nM by KINOMEscan analysis relative to control.
Chain of Mitogen-activated protein kinase kinase kinase kinase 1 (Homo sapiens) (Q92918 whole entry, looked up, the tested form may be a part): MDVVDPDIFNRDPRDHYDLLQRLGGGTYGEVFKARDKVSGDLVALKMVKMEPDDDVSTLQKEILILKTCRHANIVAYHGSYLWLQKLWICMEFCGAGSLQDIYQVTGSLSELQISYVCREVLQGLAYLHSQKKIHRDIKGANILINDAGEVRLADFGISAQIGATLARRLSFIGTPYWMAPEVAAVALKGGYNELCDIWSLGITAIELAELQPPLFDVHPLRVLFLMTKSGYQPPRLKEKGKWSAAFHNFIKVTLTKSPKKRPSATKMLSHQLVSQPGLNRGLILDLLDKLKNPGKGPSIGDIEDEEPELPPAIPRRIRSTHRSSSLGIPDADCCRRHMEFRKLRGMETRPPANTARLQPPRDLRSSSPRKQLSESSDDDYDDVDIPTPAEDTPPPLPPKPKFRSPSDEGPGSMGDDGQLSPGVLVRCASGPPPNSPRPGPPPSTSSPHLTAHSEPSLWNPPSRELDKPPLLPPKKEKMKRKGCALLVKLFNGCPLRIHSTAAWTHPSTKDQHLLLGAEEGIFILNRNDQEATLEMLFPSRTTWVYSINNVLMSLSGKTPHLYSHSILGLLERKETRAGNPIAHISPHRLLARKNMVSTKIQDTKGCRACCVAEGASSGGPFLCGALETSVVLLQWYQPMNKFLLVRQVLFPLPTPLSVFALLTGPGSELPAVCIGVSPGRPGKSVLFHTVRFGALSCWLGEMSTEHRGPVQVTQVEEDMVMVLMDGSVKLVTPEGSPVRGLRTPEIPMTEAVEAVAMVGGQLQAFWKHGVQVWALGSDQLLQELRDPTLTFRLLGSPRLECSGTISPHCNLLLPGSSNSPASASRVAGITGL
Assay [6] addresses Tyrosine-protein kinase JAK1 (Homo sapiens) (UniProt P23458). The assay is described as follows: Inhibition of JAK1 JH2 pseudokinase domain (unknown origin) assessed as residual activity at 100 nM by KINOMEscan analysis relative to control.
Assay [7] addresses Mast/stem cell growth factor receptor Kit (Homo sapiens) (UniProt P10721). The assay is described as follows: Inhibition of autoinhibited KIT (unknown origin) assessed as residual activity at 100 nM by KINOMEscan analysis relative to control.
The target in assay [8] is Serine/threonine-protein kinase 38 (Homo sapiens) (UniProt Q15208). The experiment in a line: Inhibition of NDR1 (unknown origin) assessed as residual activity at 100 nM by KINOMEscan analysis relative to control.
Chain of Serine/threonine-protein kinase 38 (Homo sapiens) (Q15208 2-465 limits assumed): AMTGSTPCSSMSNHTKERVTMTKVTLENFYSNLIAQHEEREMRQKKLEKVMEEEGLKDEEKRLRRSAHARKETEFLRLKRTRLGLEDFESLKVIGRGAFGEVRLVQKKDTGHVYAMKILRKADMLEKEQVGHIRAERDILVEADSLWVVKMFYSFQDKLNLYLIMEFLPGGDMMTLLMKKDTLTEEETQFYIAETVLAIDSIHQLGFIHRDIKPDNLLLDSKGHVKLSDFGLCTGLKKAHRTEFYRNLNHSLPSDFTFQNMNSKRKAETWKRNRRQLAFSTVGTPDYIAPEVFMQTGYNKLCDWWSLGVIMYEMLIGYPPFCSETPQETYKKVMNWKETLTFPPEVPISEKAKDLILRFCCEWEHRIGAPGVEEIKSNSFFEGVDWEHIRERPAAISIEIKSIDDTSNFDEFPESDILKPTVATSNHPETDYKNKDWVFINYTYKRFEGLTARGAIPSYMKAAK
In assay [9] the target is T3, Phosphatidylinositol 5-phosphate 4-kinase type-2 gamma (Homo sapiens) (UniProt Q8TBX8).
T3 sequence (whole entry): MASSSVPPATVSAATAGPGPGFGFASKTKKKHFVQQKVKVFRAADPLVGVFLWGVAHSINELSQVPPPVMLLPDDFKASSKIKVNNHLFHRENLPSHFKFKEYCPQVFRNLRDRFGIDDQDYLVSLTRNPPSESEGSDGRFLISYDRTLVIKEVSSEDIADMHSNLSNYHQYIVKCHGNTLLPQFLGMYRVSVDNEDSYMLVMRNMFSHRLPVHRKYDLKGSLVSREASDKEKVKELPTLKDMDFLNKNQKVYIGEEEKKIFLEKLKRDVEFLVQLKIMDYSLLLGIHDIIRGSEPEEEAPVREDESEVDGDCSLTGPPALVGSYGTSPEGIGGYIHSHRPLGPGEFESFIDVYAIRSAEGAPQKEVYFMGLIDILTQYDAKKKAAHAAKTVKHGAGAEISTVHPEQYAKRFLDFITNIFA
The assay is described as follows: Inhibition of PIP5K2C (unknown origin) assessed as residual activity at 100 nM by KINOMEscan analysis relative to control.

The target in assay [10] is RAF proto-oncogene serine/threonine-protein kinase (Homo sapiens) (UniProt P04049). The experiment in a line: Inhibition of RAF1 (unknown origin) assessed as residual activity at 100 nM by KINOMEscan analysis relative to control.
Chain of RAF proto-oncogene serine/threonine-protein kinase (Homo sapiens) (P04049 whole entry): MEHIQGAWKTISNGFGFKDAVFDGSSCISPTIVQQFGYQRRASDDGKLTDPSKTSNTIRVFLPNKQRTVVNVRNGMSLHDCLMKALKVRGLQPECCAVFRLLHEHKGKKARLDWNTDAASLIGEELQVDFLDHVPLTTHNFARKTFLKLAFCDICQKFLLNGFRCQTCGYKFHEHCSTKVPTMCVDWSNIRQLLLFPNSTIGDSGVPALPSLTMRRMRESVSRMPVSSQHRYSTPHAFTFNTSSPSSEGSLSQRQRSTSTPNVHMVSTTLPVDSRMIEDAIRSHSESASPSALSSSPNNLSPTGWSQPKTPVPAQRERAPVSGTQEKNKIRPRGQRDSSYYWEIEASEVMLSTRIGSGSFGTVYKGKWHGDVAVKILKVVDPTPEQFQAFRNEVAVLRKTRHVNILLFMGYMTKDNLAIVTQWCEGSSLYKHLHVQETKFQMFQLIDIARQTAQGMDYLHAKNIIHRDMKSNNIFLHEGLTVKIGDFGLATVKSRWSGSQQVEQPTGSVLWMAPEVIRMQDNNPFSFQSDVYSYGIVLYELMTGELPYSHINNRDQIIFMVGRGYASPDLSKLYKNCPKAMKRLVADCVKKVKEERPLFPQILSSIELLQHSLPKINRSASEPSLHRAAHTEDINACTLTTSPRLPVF
The target in assay [11] is T4, Receptor-interacting serine/threonine-protein kinase 1 (Homo sapiens) (UniProt Q13546).
T4 sequence (whole entry): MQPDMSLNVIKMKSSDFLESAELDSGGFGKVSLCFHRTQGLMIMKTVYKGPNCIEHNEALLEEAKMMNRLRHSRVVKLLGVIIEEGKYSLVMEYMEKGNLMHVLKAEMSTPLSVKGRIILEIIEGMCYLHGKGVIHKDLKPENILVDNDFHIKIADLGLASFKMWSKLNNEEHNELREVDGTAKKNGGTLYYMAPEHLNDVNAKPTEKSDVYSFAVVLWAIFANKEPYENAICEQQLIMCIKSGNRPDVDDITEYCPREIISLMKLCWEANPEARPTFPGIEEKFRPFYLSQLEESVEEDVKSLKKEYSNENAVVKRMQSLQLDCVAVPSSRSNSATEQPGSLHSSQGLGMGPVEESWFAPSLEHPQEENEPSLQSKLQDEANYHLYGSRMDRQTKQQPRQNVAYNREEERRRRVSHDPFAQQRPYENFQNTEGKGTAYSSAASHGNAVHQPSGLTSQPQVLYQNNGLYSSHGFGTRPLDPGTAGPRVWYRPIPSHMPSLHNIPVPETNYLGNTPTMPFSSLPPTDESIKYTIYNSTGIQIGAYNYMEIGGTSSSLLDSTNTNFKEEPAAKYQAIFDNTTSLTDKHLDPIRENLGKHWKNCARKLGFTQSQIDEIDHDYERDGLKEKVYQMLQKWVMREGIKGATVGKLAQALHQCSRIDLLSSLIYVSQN
The assay is described as follows: Inhibition of RIPK1 (unknown origin) assessed as residual activity at 100 nM by KINOMEscan analysis relative to control.

The target in assay [12] is Ribosomal protein S6 kinase alpha-2 (Homo sapiens) (UniProt Q15349). The assay is described as follows: Inhibition of N-terminal RSK3 […] domain 1 (unknown origin) assessed as residual activity at 100 nM by KINOMEscan analysis relative to control.
Chain of Ribosomal protein S6 kinase alpha-2 (Homo sapiens) (Q15349 whole entry): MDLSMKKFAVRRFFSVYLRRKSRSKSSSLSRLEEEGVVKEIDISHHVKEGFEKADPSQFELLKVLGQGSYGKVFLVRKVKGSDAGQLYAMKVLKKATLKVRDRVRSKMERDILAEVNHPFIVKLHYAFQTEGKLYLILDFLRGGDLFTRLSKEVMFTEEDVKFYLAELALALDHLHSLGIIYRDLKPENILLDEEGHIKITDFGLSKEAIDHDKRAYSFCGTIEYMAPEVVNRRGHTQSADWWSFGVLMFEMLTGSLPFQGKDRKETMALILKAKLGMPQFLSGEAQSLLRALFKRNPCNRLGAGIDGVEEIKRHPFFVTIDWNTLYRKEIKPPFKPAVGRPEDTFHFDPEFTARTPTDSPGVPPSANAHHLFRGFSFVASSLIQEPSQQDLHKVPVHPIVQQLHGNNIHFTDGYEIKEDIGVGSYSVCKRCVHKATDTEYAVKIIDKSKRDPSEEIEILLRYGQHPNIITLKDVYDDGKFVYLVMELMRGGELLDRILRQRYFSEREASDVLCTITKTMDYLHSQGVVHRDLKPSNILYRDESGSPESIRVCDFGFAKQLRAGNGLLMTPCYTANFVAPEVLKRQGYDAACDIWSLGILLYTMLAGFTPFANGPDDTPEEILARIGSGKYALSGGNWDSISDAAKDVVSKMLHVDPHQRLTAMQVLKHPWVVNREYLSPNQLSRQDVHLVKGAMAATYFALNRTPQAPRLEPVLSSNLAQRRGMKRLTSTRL

Chain of Calcium/calmodulin-dependent protein kinase type 1B (Homo sapiens) (Q6P2M8 whole entry): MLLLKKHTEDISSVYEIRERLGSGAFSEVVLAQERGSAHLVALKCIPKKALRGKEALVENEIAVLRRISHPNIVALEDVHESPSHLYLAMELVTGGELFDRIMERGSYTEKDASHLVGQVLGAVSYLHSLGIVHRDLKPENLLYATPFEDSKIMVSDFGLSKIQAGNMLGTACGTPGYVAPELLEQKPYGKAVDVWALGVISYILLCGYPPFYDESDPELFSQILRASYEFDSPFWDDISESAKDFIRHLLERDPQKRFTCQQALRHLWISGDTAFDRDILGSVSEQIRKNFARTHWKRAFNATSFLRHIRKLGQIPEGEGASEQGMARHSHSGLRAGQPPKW
Chain of Mast/stem cell growth factor receptor Kit (Homo sapiens) (P10721 whole entry): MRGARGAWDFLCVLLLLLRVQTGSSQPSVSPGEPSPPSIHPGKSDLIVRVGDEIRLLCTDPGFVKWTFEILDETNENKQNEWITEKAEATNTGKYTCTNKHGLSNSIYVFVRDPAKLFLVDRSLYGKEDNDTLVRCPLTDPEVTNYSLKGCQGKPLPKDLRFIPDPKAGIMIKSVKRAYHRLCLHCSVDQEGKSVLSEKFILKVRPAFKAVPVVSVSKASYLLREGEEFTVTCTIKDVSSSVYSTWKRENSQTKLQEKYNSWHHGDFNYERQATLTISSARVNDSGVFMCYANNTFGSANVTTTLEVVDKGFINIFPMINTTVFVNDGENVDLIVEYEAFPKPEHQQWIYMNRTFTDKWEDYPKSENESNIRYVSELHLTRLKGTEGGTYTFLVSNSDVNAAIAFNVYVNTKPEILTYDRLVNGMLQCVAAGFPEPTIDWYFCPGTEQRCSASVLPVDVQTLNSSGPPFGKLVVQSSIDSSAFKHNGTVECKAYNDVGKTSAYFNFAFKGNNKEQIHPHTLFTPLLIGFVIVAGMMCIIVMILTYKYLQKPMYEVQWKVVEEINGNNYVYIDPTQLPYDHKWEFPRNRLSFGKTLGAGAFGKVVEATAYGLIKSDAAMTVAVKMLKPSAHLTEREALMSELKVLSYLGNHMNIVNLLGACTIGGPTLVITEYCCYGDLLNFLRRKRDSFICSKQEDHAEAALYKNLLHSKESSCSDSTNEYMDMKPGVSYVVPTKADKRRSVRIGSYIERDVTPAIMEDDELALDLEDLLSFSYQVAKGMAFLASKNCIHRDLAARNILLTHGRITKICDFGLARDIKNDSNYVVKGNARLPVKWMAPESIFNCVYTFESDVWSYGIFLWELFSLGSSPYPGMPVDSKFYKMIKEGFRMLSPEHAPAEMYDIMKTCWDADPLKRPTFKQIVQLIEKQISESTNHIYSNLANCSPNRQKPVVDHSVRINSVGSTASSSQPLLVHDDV

For the compound `COc1cc2nc(C)nc(N[C@H](C)c3cccc(-c4cn[nH]c4)c3)c2cc1OC`, the Activity in [1] is 85%.

As for `COc1cc2ncnc(N[C@H](C)c3cccc4ccccc34)c2cc1OC`, the Activity in assay [2] was 78%; in assay [3], 80%; in assay [4] it was 96%; in assay [5], 81%; in assay [6], 100%; in assay [7] it was 91%. In addition, the Activity in assay [8] was found to be 80%; in [9], 96%; in assay [10], 85%; in assay [11], 23%; in assay [12], 100%.
